Source: US20180000750A1, “ANTIPLATELET AGENT AND USES THEREOF” (priority 2015, published 2018)
Each block holds one compound with its values, some of them ahead of it.

Key:
[1] = test system: arachidonic acid pathway; assay: VerifyNow aspirin assay (ARU); format: cell-based, human; details: no treatment 660
Excerpt: (§1) It is a whole-blood assay based on light transmission measurements. The assay is a turbidimetric-based optical detection system that, like optical aggregometry, depends on the ability of activated platelets to bind fibrinogen. When platelets are activated, they form aggregates with fibrinogen-coated beads and the light transmission through the samples increases. Arachidonic acid, ADP and thrombin receptor activating peptide are the corresponding agonists used in VerifyNow system to specifically differentiate the platelet activation pathways. In the aspirin-specific assay, the degree of aggregation attenuated by aspirin, which blocks the arachidonic acid pathway, is quantified according to a corresponding decrease in light transmission and is reported as aspirin reaction units (ARU). ARU value less than 550 indicates adequate platelet inhibition by aspirin treatment. The residual activity of platelet after inhibition on P2Y12 receptor is represented as the P2Y12 reaction units (PRU). The normal PRU distribution range without anti-platelet therapy is 194-418. P2Y12 antagonist like clopidogrel and ticagrelor may be used as the positive control. […] The reference range was 125-330. Aggrastat may be used as the positive control medication for PAU value.
(§2) The VerifyNow P2Y12 system measures the rate and extent of changes in light transmittance caused by platelets aggregating in whole blood samples.

[2] = Tail bleeding time; format: in vivo, ICR mice; details: mice, intraperitoneal, 0.1 mg/Kg, cut 30 minutes after treatment; DMSO vehicle 83.1±11.7 sec
Excerpt: (§3) ICR mice (7-8 weeks old, each weighted about 18 to 25 g) were used in this study. All mice were maintained in the animal facility under 12 hrs light/dark cycle, with ad libitum access to food and water.
Briefly, the test mice were randomly divided into three groups, in which the control mice received intraperitoneal injection of normal saline, whereas mice in the vehicle and the test groups respectively received intraperitoneal injection of the vehicle (i.e., DMSO) and Physalin B (i.e., […]). A cut (about 2-3 mm in length) was incised on the tail vein of each mice (about 3-5 cm from the tip of the tail) 30 minutes after the indicated treatment, then the blood was collected into a warm saline, in which the volume and the time to cessation of bleeding were both measured. Bleeding time was defined as the time in which the first cessation of bleeding was observed. Results are illustrated in FIG. 2.

[3] = test system: late EPCs; assay: MTT cell viability, late EPCs; format: cell-based, human; details: 48 hrs, read-out: IC50 (cytotoxicity, MTT)
Description: Two different types of EPCs were cultured from adult peripheral blood and defined as early EPCs and late EPCs according to their time-dependent appearance. […] Peripheral blood (20 mL) was obtained from donors with informed consent. The mononuclear cells were fractionated from other components of peripheral blood by centrifugation on Histopaque 1077 (Sigma, St. Louis, Mo.), with gradients according to the manufacturer's instructions. The isolated mononuclear cells were re-suspended with a EGM-2 BulletKit system (catalog number CC-3162; Clonetics™) consisting of an endothelial basal medium, 5% fetal bovine serum, hEGF, VEGF, hFGF-B, IGF-1, ascorbic acid, and heparin; 1×10^7 mononuclear cells per well were seeded on 2% gelatin-coated 6-well plates (Sigma, St. Louis, Mo.) and incubated in a 5% CO2 incubator at 37° C. […]
Cell viability was measured with blue formazan that was metabolized from 3-(4,5-dimethylthiazol-2-yl)-2, 5-diphenyl tetrazolium bromide (MTT, Amresco USA) in mitochondria, which is active only in live cells. […] The absorbance of each well was measured at 540 nm with an ELISA reader and the percentage viability was calculated.
The in vitro cytotoxic effect of physalin B on HUVEC and EPCs were respectively determined by MTT assay, in which cells were exposed to various concentrations of physalin B (i.e., 0, 20, 40, 80 and 160 μM). […]

[4] = test system: platelets; assay: Lactate dehydrogenase release from platelets (cytotoxicity); format: cell-based; details: up to 160 μM, 30 min at 37° C.
Description: Cytotoxicity of physalin B on platelets were evaluated by measuring the release of lactate dehydrogenase (LDH). Platelets were suspended in Tyrodes's solution at a concentration of 3×10^8 platelets/ml. For positive control, platelets were disrupted by sonication at 4° C. for 30 sec at 40 kHz with a Biosonic Sonicator. The supernatant was used for LDH determinations. LDH activity was measured as an increase in the absorbance of NADH at 340 nm using lactate as substrates. The tests were carried out with a Toshiba Medical automatic chemical analyzer, TBA-200FR (Toshiba Medical products). The platelets were pretreated with various concentrations of physalin B for 30 min at 37° C., and the supernatant was used to measure the LDH activity.
In this example, the cytotoxic effect of physalin B on platelets was investigated by measuring the activity of lactate dehydrogenase (LDH) released from the ruptured platelets. The platelets were exposed to various concentrations of physalin B (PHB) or DMSO, which was used as the vehicle control, while sonication ruptured platelets served as a positive control. The final concentration of DMSO in the test medium was less than 0.1%. Results are depicted in FIG. 4.

[5] = target: T1, platelet glycoprotein (GP) IIb/IIIa receptors (Homo sapiens, UniProt P05106+P08514); assay: VerifyNow GPIIb/IIIa assay (PAU); format: cell-based; details: no treatment 161
T1 construct: It is a whole-blood assay based on light transmission measurements; endogenous in cells; host or cells: platelets in citrated whole blood of healthy volunteers
T1 sequence (P08514 32-887 limits assumed): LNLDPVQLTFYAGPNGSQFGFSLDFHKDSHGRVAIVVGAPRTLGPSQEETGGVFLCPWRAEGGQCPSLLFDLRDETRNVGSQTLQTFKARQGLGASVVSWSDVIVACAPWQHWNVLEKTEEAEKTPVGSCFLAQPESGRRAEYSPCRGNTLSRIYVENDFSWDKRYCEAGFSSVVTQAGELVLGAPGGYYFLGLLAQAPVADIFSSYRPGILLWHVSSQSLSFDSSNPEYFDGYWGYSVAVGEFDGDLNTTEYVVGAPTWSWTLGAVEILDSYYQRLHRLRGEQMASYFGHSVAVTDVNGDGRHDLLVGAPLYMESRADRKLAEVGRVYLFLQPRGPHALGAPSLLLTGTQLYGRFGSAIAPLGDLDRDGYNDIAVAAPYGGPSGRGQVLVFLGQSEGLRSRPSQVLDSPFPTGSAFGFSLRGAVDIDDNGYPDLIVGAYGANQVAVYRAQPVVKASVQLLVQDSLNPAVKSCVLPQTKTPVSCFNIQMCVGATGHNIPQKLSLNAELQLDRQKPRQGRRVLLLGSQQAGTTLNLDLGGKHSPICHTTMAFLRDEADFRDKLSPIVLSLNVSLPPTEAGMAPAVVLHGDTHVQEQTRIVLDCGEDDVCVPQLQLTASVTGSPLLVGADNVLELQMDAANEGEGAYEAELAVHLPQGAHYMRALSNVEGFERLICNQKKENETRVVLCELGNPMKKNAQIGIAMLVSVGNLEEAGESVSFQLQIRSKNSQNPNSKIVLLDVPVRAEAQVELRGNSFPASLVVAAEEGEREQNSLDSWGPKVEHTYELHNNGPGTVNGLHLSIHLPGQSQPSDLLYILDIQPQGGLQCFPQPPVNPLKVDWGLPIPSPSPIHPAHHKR
T1 sequence (P08514 891-1039 limits assumed): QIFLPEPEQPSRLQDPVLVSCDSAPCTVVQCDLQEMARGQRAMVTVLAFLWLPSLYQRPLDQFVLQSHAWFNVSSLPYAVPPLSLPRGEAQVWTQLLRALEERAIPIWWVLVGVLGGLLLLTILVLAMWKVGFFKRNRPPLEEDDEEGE
T1 sequence (P05106 27-788): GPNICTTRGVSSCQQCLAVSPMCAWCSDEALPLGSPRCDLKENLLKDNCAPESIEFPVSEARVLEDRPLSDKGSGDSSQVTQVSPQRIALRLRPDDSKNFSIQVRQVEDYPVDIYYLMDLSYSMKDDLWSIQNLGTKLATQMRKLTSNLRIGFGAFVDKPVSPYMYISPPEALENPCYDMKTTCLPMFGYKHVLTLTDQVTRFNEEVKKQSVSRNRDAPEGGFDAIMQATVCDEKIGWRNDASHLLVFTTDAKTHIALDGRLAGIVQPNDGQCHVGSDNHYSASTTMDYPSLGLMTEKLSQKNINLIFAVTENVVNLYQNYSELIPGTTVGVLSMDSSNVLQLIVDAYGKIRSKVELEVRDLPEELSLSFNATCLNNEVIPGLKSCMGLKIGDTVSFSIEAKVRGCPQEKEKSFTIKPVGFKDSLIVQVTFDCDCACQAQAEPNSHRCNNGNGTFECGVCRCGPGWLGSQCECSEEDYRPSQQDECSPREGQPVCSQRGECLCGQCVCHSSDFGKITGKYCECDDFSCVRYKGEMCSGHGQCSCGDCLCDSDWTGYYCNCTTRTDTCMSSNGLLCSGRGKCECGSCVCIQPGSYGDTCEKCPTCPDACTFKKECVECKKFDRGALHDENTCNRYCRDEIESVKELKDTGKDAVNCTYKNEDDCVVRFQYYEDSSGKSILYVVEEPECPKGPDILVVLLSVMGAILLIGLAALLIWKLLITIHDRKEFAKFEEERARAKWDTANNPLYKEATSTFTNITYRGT
Excerpt: as §1, §2

[6] = Occlusion time for irradiation induced platelet plug formation in mesenteric venules; format: in vivo, ICR mice; details: mice, DMSO vehicle 241±6.8 sec
Excerpt: as §3
In this example, the effects of Physalin B on the aggregation of platelets were investigated by the measurement of the occlusion time for irradiation induced platelet plug formation. Briefly, mice were respectively treated with normal saline, DMSO vehicle, and Physalin B (i.e., 0.025, 0.05, or 0.1 mg/g), then the mesentertic venules were selected for irradiation to induce microthrombus formation. The occlusion time was defined as the time in which the platelet plug was first observed. Results are illustrated in FIG. 3.

[7] = test system: platelets; assay: PFA-100 platelet function, collagen/epinephrine (CEPI) cartridge closure time; format: cell-based, human; details: 10 μM, collagen-epinephrine stimulus, citrated whole blood; control 125 sec
Description: (§4) Ten healthy, non-smoking volunteers (6 women, 4 men), ages 23-39 years old, participated in this study. The citrated whole blood samples were incubated at room temperature for 60 min. with physalin B (dissolved in 0.5% DMSO) or the vehicle alone. Platelet function measurement was performed with a PFA-100 analyzer system (Dade-Behring, Marburg, Germany). The PFA-100TM device measures the closure time (CT) required for platelets to plug an aperture simulating an injured vessel after platelet activation by relevant stimuli, namely collagen-epinephrine (EPI) or collagen-ADP (ADP). The maximum value for closure time is 300 seconds and values greater than 300 seconds are reported as non-closure. The closure time was determined with duplicate samples of 800 μL using cartridges containing collagen-epinephrine or collagen-ADP membranes.
(§5) The PFA-100 system is a platelet function analyzer designed to measure platelet-related primary hemostasis. The system uses two disposable cartridges: a collagen/epinephrine (CEPI) and a collagen/ADP (CADP) cartridge.

[8] = test system: adhesion of THP-1 to HUVECs; assay: THP-1 cell adhesion to TNF-α-activated HUVECs; format: cell-based, human; details: 80 μM, TNF-α-exposed cells, compared to TNF-α alone
Description: HUVECs were starved in serum-free medium for 1 hour before treatments. For adhesion assays, HUVECs monolayers in 96-well plates were treated for 2 hours with physalin B and/or TNF-α for 4 hours. After treatment, 1×10^6 THP-1 cells labeled with 5 μM calcein-AM were seeded onto confluent HUVECs and co-cultured for 30 min at 37° C. in 5% CO2 incubator. Non-adherent THP-1 cells were removed by washing with 1× phosphate buffered saline (PBS) twice. Cell images were collected by a fluorescence microscope (Zeiss) and quantified using a fluorescence microplate reader at an excitation wavelength of 490 nm and an emission wavelength of 525 nm (Bio-Tek Synergy HT).
The in vitro adhesion of THP-1 to HUVECs was monitored by use of a fluorescence dye, Calcein-AM, which stains only the viable cells. Briefly, THP-1 cells were labeled with calcein-AM first, then co-cultured with physalin B pre-treated HUVECs in the presence of TNF-α, which was added to induce inflammation. The fluorescence intensity at 525 nm was then measured.

[9] = test system: HUVECs; assay: MTT cell viability, HUVECs; format: cell-based, human; details: 48 hrs, read-out: IC50 (cytotoxicity, MTT)
Description: HUVECs were purchased from American Type Culture Collection (ATCC) and were cultivated in endothelal cell nutrient medium consisting of 20% heat-inactivated fetal bovine serum (FBS), 80% Medium 199 (M199) buffered with 25 mM HEPES and supplemented with 2 mM L-Glutamine and 100 U/ml K-Penicillin and 100 μg/mL streptomycin, and kept at 37° C. in a 5% CO2 atmosphere.
Cell viability was measured with blue formazan that was metabolized from 3-(4,5-dimethylthiazol-2-yl)-2, 5-diphenyl tetrazolium bromide (MTT, Amresco USA) in mitochondria, which is active only in live cells. HUVEC and late EPCs were seeded in a 96-well plate at a density of 1×10^5 cells per well, cultured overnight and pretreated with various concentrations of physalin B. After incubation for 6 hr, 24 hr and 48 hr, the MTT (5 mg/ml) colorimetric viability test was used to determine the viability of cells. The absorbance of each well was measured at 540 nm with an ELISA reader and the percentage viability was calculated.
The in vitro cytotoxic effect of physalin B on HUVEC and EPCs were respectively determined by MTT assay, in which cells were exposed to various concentrations of physalin B (i.e., 0, 20, 40, 80 and 160 μM). Results are illustrated in FIGS. 5A and 5B.

[10] = test system: platelets; assay: PFA-100 platelet function, collagen/ADP (CADP) cartridge closure time; format: cell-based, human; details: 10 μM, collagen/ADP stimulus, citrated whole blood
Description: as §4, §5

[11] = target: T2, P2Y12 receptor (Homo sapiens, UniProt Q9H244); assay: VerifyNow P2Y12 assay (PRU); format: cell-based; details: no treatment 314
T2 construct: It is a whole-blood assay based on light transmission measurements; endogenous in cells; host or cells: platelets in citrated whole blood of healthy volunteers
T2 sequence (Q9H244 whole entry): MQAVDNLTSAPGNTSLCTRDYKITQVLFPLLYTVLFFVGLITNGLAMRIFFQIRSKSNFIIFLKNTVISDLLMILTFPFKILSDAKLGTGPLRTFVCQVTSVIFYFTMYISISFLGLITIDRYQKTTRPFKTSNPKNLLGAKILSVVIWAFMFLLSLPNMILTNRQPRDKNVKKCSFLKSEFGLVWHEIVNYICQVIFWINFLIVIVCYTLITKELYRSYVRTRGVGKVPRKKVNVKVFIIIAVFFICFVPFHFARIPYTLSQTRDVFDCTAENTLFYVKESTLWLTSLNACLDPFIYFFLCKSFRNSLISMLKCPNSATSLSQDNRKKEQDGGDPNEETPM
Excerpt: as §1, §2

[12] = reference drug treatment, normal range 194-418

Compound: CC(=O)Oc1ccccc1C(=O)O [Aspirin, Acetylsalicylic acid, reference compound]
Aspirin (ARU) ([1]; reference drug treatment, <550 indicates adequate inhibition): 404 ARU

Compound: C[C@]12C(=O)C=CCC1=CC[C@@H]1[C@@H]2CC[C@]2(O)C(=O)O[C@@]3(C)[C@H]4C[C@]5(C)[C@@H](CO[C@@]16O[C@@]32[C@H]5C6=O)C(=O)O4 [Physalin B]
tail bleeding time [2]: 224.4 ± 58.9 s
IC50 [3]: 76 µM
LDH release from platelets [4]: no obvious LDH release
GPIIb/IIIa (PAU) ([5]; 20 μM): 144 PAU
GPIIb/IIIa (PAU) ([5]; 50 μM): 129 PAU
occlusion time ([6]; 0.025 mg/g): 349 ± 12.3 s
occlusion time ([6]; 0.05 mg/g): 390 ± 7 s
occlusion time ([6]; 0.1 mg/g): 415 ± 34.5 s
closure time [7]: 260 s
inhibition on the adhesion of THP-1 to HUVECs [8]: about 35%
Aspirin (ARU) ([1]; 20 μM): 469 ARU
Aspirin (ARU) ([1]; 50 μM): 366 ARU
IC50 [9]: 30 µM
closure time [10]: statistically significant prolonged closure time
P2Y12 (PRU) ([11]; 20 μM): 226 PRU
P2Y12 (PRU) ([11]; 50 μM): 65 PRU

GPIIb/IIIa (PAU) ([5]; reference drug treatment, reference range 125-330): 1 PAU
Compound: CCCCS(=O)(=O)N[C@@H](Cc1ccc(OCCCCC2CCNCC2)cc1)C(=O)O [Aggrastat, reference compound]

P2Y12 (PRU) [11, 12]: 1 PRU
Compound: CCCSc1nc(N[C@@H]2C[C@H]2c2ccc(F)c(F)c2)c2nnn([C@@H]3C[C@H](OCCO)[C@@H](O)[C@H]3O)c2n1 [Ticagrelor, reference compound]

P2Y12 (PRU) [11, 12]: 263 PRU
Compound: COC(=O)[C@H](c1ccccc1Cl)N1CCc2sccc2C1 [Clopidogrel, reference compound]
